Test results reported in BindingDB's records for patent US11149066 (Daiichi Sankyo, 2021).
Positions of bridges follow the written chain, without caps; N, C: chain ends. Residues, ends and D or L forms follow the SMILES beside them.

Molecular target: Thrombospondin-1 (Homo sapiens, UniProt P07996)
Test: TSP1 inhibitory activity
Method: As referred to herein, the TSP1 inhibitory activity refers to the activity to inhibit one or more effects of TSP1, including angiostatic effect. The TSP1 inhibitory activity is measured by a cell adhesion inhibition assay using human TSP1 and vascular endothelial cells as described hereinbelow in the Examples section. In this assay, when the 50% inhibitory concentration (IC5O) of a test substance is 200 nM or less, the test substance is determined to have TSP1 inhibitory activity.

Chain of Thrombospondin-1 (P07996 whole entry): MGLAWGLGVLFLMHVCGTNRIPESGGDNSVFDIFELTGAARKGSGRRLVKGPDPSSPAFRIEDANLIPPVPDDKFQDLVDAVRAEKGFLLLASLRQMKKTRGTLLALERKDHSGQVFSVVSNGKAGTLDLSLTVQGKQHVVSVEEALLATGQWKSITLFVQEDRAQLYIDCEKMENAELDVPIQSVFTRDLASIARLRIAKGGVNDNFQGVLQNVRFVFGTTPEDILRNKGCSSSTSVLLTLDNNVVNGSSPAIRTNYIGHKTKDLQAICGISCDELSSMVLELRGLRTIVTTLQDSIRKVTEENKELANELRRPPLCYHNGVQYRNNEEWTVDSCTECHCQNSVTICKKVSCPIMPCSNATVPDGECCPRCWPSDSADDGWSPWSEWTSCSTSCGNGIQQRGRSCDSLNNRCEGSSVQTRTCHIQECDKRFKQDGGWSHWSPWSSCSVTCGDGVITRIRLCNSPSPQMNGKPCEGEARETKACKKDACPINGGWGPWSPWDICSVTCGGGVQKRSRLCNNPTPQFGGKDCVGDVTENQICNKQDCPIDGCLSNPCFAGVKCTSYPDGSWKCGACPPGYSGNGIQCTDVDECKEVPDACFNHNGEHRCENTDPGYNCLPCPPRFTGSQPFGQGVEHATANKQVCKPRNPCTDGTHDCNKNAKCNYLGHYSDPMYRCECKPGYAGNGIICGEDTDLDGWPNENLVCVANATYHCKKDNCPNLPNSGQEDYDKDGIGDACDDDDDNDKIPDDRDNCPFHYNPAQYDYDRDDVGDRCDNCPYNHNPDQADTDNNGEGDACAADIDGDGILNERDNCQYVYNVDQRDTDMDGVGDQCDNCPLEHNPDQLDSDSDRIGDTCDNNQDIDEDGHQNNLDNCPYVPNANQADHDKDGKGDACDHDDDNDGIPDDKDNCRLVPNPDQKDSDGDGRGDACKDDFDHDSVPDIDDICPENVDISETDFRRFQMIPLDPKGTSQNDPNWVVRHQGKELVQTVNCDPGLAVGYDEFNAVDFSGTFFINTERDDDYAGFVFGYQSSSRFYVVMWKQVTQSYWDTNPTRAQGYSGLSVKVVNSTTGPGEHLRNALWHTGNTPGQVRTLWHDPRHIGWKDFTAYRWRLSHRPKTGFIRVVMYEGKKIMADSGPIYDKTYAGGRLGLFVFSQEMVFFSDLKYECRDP

In the case of `CC[C@H](C)[C@@H]1NC(=O)[C@H](Cc2ccccc2)NC(=O)CSC[C@@H](C(N)=O)NC(=O)[C@H](C(C)C)NC(=O)[C@H](Cc2c[nH]c3ccccc23)NC(=O)[C@H](CCCNC(=N)N)NC(=O)[C@H](C(C)C)NC(=O)[C@H](Cc2c[nH]c3ccccc23)NC(=O)[C@H](CC(N)=O)NC(=O)[C@H](CCCCN)NC(=O)CNC(=O)[C@H](CO)NC1=O` [US11149066, Compound 10] ({CH2CO}-FISGKNWVRWVC-NH2; thioether N-12), the Kd is reported as 0.091 nM.
